According to article PMC10139140, “Synthesis of Novel 2-(Cyclopentylamino)thiazol-4(5H)-one Derivatives with Potential Anticancer, Antioxidant, and 11β-HSD Inhibitory Activities” (International Journal of Molecular Sciences, 2023):

Experiments:
[1] = tested on: human breast carcinoma (MDA-MB-231); experiment: MTS metabolic activity assay, MDA-MB-231 cells; assay type: cell-based; settings: Homo sapiens, 72 h, read-out: Cell metabolic activity (MTS), % of untreated control
Description: (§1) The BJ (CRL-2522), Caco-2 (HTB-37), PANC-1 (CRL-1469), U-118 MG (HTB-15), SK-MEL-30 (ACC 151), and MDA-MB-231 (HTB-26) cell lines were purchased from ATCC (Manassas, VA, USA) or DSMZ (Braunschweig, GERMANY). Cells were cultured in accordance with manufacturers' recommendations in a DMEM, MEM, or RPMI-1640 (Sigma, Saint Louis, MO, USA; Gibco, Waltham, MA, USA), supplemented with 10% FBS, except for Caco-2 (20%) (Thermo Fisher Scientific, Waltham, MA, USA) and 1% antibiotic mix solution (penicillin, streptomycin; Thermo Fisher Scientific, Waltham, MA, USA) in a humidified atmosphere with 5% CO2 at 37 °C. All cell lines were cultured in T75 cell culture flasks or cell culture dishes to reach 80–90% confluency and seeded at a standard density of 5 × 10^3 cells/0.32 cm^2, except for BJ cells at 2 × 10^3 cells/0.32 cm^2.
(§2) The MTS ((MTS: 3-(4,5-dimethylthiazol-2-yl)-5-(3-carboxymethoxyphenyl)-2-(4-sulfophenyl)-2H-tetrazolium)) assay was performed following previously reported method. Briefly, cells were seeded at a standard density into 96-well flat-bottom plates and incubated for 24 h, followed by the treatment. The various concentrations of compounds were prepared and treated for the next 72 h. MTS solution was added for 3h and incubated at standard conditions, protected from light. Finally, the absorbance was read at […] and 620 nm wavelengths using a Synergy H1 microplate reader (BioTek, Santa Clara, CA, USA). The results are presented as %, while untreated control cells were considered 100%.

BJ cells = experiment: MTS metabolic activity assay, BJ cells; assay type: cell-based; settings: Homo sapiens, 72 h, read-out: Cell metabolic activity (MTS), % of untreated control
Description: as §1, §2

11β-HSD1 = target: T1, 11β-HSD1 (Homo sapiens, UniProt P28845); experiment: Inhibition of 11β-HSD1 (cortisone to cortisol, human liver microsomes, cortisol ELISA); assay type: biochemical
T1 construct: Human liver microsomes were used as a source of 11β-HSD1 enzyme; tissue XenoTech Lot No. 1410013; host or cells: pooled human liver microsomes, mixed gender
Description: The resulting solution with a final volume of 100 µL was incubated for 2.5 h at 37 °C. To stop the reaction, 10 µL of a 100 µM solution of 18β-glycyrrhetinic acid in PBS was added. The level of cortisol obtained in the reaction was measured by commercially available ELISA kit.
As a control, analogous tests without the addition of inhibitors were used. Half the inhibitory concentration (causing 50% reduction of cortisol or cortisone) was read from the chart.

glioma (U-118 MG) = experiment: MTS metabolic activity assay, U-118 MG cells; assay type: cell-based; settings: Homo sapiens, U-118-MG, U118-MG, 72 h, read-out: Cell metabolic activity (MTS), % of untreated control
Description: as §1, §2

[2] = tested on: human pancreatic carcinoma (PANC-1); experiment: MTS metabolic activity assay, PANC-1 cells; assay type: cell-based; settings: Homo sapiens, 72 h, read-out: Cell metabolic activity (MTS), % of untreated control
Description: as §1, §2

11β-HSD2 = target: T2, 11β-HSD2 (Homo sapiens, UniProt P80365); experiment: Inhibition of 11β-HSD2 (cortisol to cortisone, human microsomes, cortisol ELISA); assay type: biochemical; settings: 2.5 h, 37 °C
T2 construct: Human liver microsomes were used as a source of 11β-HSD2 enzyme; tissue XenoTech Lot No. 1710160; host or cells: human kidney microsomes, mixed gender (method text says human liver microsomes)
T2 sequence (P80365 1-405): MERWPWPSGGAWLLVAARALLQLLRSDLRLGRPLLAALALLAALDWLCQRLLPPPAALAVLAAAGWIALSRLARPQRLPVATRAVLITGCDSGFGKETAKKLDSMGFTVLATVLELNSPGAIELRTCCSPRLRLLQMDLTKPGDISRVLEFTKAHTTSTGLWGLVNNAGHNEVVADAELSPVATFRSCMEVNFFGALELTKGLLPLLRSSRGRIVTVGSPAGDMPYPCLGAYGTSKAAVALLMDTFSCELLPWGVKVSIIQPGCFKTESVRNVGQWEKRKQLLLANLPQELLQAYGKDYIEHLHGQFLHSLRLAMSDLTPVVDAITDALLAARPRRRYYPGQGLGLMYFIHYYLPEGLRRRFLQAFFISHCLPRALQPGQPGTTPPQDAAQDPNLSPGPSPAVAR
Description: The resulting solution with a final volume of 100 µL was incubated for 2.5 h at 37 °C. […] The level of unreacted cortisol was measured by a commercially available ELISA kit.

[3] = tested on: skin melanoma (SK-MEL-30); experiment: MTS metabolic activity assay, SK-MEL-30 cells; assay type: cell-based; settings: Homo sapiens, 72 h, read-out: Cell metabolic activity (MTS), % of untreated control
Description: as §1, §2

[4] = tested on: human colon carcinoma (Caco-2); experiment: MTS metabolic activity assay, Caco-2 cells; assay type: cell-based; settings: Homo sapiens, 72 h, read-out: Cell metabolic activity (MTS), % of untreated control
Description: as §1, §2

T1 sequence (P28845 whole entry): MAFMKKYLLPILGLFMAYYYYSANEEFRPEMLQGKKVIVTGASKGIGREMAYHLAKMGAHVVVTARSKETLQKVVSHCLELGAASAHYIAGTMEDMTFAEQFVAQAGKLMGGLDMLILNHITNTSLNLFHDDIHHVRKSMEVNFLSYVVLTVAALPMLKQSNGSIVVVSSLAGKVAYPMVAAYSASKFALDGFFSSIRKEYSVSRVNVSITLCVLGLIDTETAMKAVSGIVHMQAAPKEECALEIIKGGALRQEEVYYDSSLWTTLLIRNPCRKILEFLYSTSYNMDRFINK

Compound CCC1SC(NC2CCCC2)=NC1=O (stereo not drawn) [Compound 3b, 2-(cyclopentylamino)-5-ethylthiazol-4(5H)-one] has a viability at 10 µM ([1]; MDA-MB-231, 10 µM) of 97.5%, a viability at 20 µM ([1]; MDA-MB-231, 20 µM) of 97.8% and a viability at 50 µM ([1]; MDA-MB-231, 50 µM) of 94.5%. The viability at 100 µM ([1]; MDA-MB-231, 100 µM) was 95.3%, the viability at 200 µM ([1]; MDA-MB-231, 200 µM) was 86.5% and the viability at 300 µM ([1]; MDA-MB-231, 300 µM) was 75.3%. The viability at 500 µM ([1]; MDA-MB-231, 500 µM) was 57.4%, the viability at 10 µM (BJ cells; 10 µM) was 97.9% and the viability at 20 µM (BJ cells; 20 µM) was 98.5%. The viability at 50 µM (BJ cells; 50 µM) was 102%, the viability at 100 µM (BJ cells; 100 µM) was 108% and the viability at 200 µM (BJ cells; 200 µM) was 110%. The viability at 300 µM (BJ cells; 300 µM) was 112%, the viability at 500 µM (BJ cells; 500 µM) was 111% and the IC50 (11β-HSD1) was > 10 µM. The inhibition at 10 µM (11β-HSD1; 10 µM, 2.5 h, 37 °C) was 21.3 ± 3.29%, the viability at 10 µM (glioma (U-118 MG); 10 µM) was 110% and the viability at 20 µM (glioma (U-118 MG); 20 µM) was 107%. For the same compound, the viability at 50 µM (glioma (U-118 MG); 50 µM) was 111%, the viability at 100 µM (glioma (U-118 MG); 100 µM) was 113% and the viability at 200 µM (glioma (U-118 MG); 200 µM) was 113%. The viability at 300 µM (glioma (U-118 MG); 300 µM) was 112%, the viability at 500 µM (glioma (U-118 MG); 500 µM) was 107% and the viability at 10 µM ([2]; PANC-1, 10 µM) was 103%. The viability at 20 µM ([2]; PANC-1, 20 µM) was 102%, the viability at 50 µM ([2]; PANC-1, 50 µM) was 107% and the viability at 100 µM ([2]; PANC-1, 100 µM) was 112%. For the same compound, the viability at 200 µM ([2]; PANC-1, 200 µM) was 113%, the viability at 300 µM ([2]; PANC-1, 300 µM) was 110% and the viability at 500 µM ([2]; PANC-1, 500 µM) was 105%. It also gave an inhibition at 10 µM (11β-HSD2) of 39.7 ± 0.07%, a viability at 10 µM ([3]; SK-MEL-30, 10 µM) of 93.7% and a viability at 20 µM ([3]; SK-MEL-30, 20 µM) of 99%. For the same compound, the viability at 50 µM ([3]; SK-MEL-30, 50 µM) was 97.4%, the viability at 100 µM ([3]; SK-MEL-30, 100 µM) was 105% and the viability at 200 µM ([3]; SK-MEL-30, 200 µM) was 101%. It also gave a viability at 300 µM ([3]; SK-MEL-30, 300 µM) of 98.4%, a viability at 500 µM ([3]; SK-MEL-30, 500 µM) of 93.8% and a viability at 10 µM ([4]; Caco-2, 10 µM) of 87.9%. It also gave a viability at 20 µM ([4]; Caco-2, 20 µM) of 87.3%, a viability at 50 µM ([4]; Caco-2, 50 µM) of 84.4% and a viability at 100 µM ([4]; Caco-2, 100 µM) of 79.8%. The viability at 200 µM ([4]; Caco-2, 200 µM) was 77%, the viability at 300 µM ([4]; Caco-2, 300 µM) was 73.2% and the viability at 500 µM ([4]; Caco-2, 500 µM) was 66.1%.
